Laboratory results taken from publication PMC9646970 (Poultry Science, 2022).
Like-named read-outs stand apart in the source and are kept apart here.

What was measured:
[1] = cited from earlier work
[2] = assay type: in vivo, broiler chickens
[3] = assay type: in vivo, broiler chickens; details: single ENR administration (i.v. 10 mg/kg or p.o. 20 mg/kg) with or without CsA or AC
[4] = Population pharmacokinetic analysis; assay type: in vivo, broiler chickens; details: for AUC: geometric mean
[5] = oral administration, same dose (20 mg/kg), ref Xiao et al., 2018
[6] = population fixed effect, p.o. administration

AUC ([2]; Ross hybrid (Cornish × Plymouth Rock), plasma, po, 20 mg/kg, AUC, enrofloxacin in plasma, enrofloxacin p.o. 20 mg/kg + cyclosporine A p.o. 50 mg/kg, geometric mean (min–max)): 40400 ng·h/mL | Cmax ([2]; Ross hybrid (Cornish × Plymouth Rock), plasma, po, 20 mg/kg, Cmax, enrofloxacin in plasma, enrofloxacin p.o. 20 mg/kg + cyclosporine A p.o. 50 mg/kg, geometric mean (min–max)): 5620 ng/mL | Tmax ([2]; Ross hybrid (Cornish × Plymouth Rock), plasma, po, 20 mg/kg, Tmax, enrofloxacin in plasma, enrofloxacin p.o. 20 mg/kg + cyclosporine A p.o. 50 mg/kg, geometric mean (min–max)): 1.35 h | increase of AUC with CsA co-administration ([2]; enrofloxacin p.o. 20 mg/kg + CsA p.o. versus enrofloxacin p.o. alone): approx. 20% | AUC ([4]; Ross hybrid (Cornish × Plymouth Rock), plasma, iv, 10 mg/kg, AUCi.v. – activated charcoal, enrofloxacin i.v. 10 mg/kg + activated charcoal p.o. 1 g/kg): 13300 ng·h/mL | AUC ([4]; Ross hybrid (Cornish × Plymouth Rock), plasma, iv, 10 mg/kg, AUCi.v. – cyclosporine A, enrofloxacin i.v. 10 mg/kg + cyclosporine A p.o. 50 mg/kg): 16200 ng·h/mL | bioavailability ([4]; Ross hybrid (Cornish × Plymouth Rock), plasma, po, 20 mg/kg): 100% | AUC ([4]; Ross hybrid (Cornish × Plymouth Rock), plasma, po, 20 mg/kg, AUCp.o. – control, enrofloxacin p.o. 20 mg/kg alone): 31200 ng·h/mL | AUC ([4]; Ross hybrid (Cornish × Plymouth Rock), plasma, po, 20 mg/kg, AUCp.o. – cyclosporine A, enrofloxacin p.o. 20 mg/kg + cyclosporine A p.o. 50 mg/kg): 37400 ng·h/mL | lag time (time to pass the crop and the stomach to reach the absorption site) ([4]; p.o. administration, on average): 3.24 min | βCl BW (covariate effect of body weight on clearance) ([4]; population fixed effect, log-normalized BW): 0.77 | tvTlag (typical value of lag time) [4, 6]: 0.054 h | tvka (typical value of absorption rate constant) [4, 6]: 1.26 h⁻¹
Structure (SMILES): CCN1CCN(c2cc3c(cc2F)c(=O)c(C(=O)O)cn3C2CC2)CC1 [Enrofloxacin, enrofloxacin]
oral bioavailability change with verapamil co-administration ([1]; co-administered with the P-gp inhibitor verapamil, ref Guo et al., 2013): nearly doubled | AUC ([1]; i.v. administration at 10 mg/kg, ref Atef et al., 2020): 15200 ± 1080 ng·h/mL | AUC0-24h [1, 5]: 30.07 ± 4.64 µg/h/mL | Cmax [1, 5]: 2860 ± 520 ng/mL | adverse effects [3]: No adverse effects were observed
